{
  "source": "ChEMBL document CHEMBL4387741",
  "about": "“Optimization of novel reversible Bruton's tyrosine kinase inhibitors identified using Tethering-fragment-based screens” (Bioorg Med Chem, 2019)",
  "key": {"[1]": {"target": "Bone morphogenetic protein receptor type-2 (Homo sapiens) (UniProt Q13873)", "assay": "Inhibition of wild-type human partial length BMPR2 (R179 to Q526 residues) expressed in mammalian expression system at 1 uM by Kinomescan method relative to control"}, "[2]": {"target": "Serine/threonine-protein kinase BRSK2 (Homo sapiens) (UniProt Q8IWQ3)", "assay": "Inhibition of wild-type human full length BRSK2 (M1 to L674 residues) expressed in bacterial expression system at 1 uM by Kinomescan method relative to control"}, "[3]": {"tested_on": "Epidermal growth factor receptor (Homo sapiens), P00533 [UNDEFINED MUTATION]", "assay": "Inhibition of human partial length EGFR S752-I759del mutant expressed in bacterial expression system at 1 uM by Kinomescan method relative to control"}, "[4]": {"target": "Serine/threonine-protein kinase MAK (Homo sapiens) (UniProt P20794)", "assay": "Inhibition of wild-type human partial length MAK (M1 to P314 residues) expressed in bacterial expression system at 1 uM by Kinomescan method relative to control"}, "[5]": {"target": "Serine/threonine-protein kinase MARK1 (Homo sapiens) (UniProt Q9P0L2)", "sequence (Q9P0L2 whole entry, looked up, the tested form may be a part)": "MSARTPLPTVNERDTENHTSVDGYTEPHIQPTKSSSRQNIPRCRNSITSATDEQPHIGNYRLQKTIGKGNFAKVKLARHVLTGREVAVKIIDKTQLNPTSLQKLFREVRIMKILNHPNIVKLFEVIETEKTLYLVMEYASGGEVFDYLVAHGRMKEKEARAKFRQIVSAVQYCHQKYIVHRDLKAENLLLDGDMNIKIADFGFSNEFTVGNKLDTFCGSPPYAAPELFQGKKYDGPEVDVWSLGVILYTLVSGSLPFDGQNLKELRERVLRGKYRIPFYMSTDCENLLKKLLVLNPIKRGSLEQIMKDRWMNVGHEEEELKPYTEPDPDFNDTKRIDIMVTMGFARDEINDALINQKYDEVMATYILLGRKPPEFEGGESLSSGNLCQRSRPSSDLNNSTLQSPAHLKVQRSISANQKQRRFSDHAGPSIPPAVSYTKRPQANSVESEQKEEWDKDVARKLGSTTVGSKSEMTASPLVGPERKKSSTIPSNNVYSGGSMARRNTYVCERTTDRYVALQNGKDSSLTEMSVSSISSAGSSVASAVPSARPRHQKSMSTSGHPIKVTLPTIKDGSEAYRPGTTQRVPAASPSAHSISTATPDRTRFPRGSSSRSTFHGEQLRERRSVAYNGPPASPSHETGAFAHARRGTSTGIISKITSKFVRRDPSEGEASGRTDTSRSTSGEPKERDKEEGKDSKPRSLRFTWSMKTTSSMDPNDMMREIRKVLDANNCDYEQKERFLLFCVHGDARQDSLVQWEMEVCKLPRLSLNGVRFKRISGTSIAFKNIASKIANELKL", "assay": "Inhibition of wild-type human partial length MARK1 (Q30 to T341 residues) expressed in bacterial expression system at 1 uM by Kinomescan method relative to control"}, "[6]": {"target": "Dual specificity mitogen-activated protein kinase kinase 5 (Homo sapiens) (UniProt Q13163)", "sequence (Q13163 whole entry, the tested form may be a part)": "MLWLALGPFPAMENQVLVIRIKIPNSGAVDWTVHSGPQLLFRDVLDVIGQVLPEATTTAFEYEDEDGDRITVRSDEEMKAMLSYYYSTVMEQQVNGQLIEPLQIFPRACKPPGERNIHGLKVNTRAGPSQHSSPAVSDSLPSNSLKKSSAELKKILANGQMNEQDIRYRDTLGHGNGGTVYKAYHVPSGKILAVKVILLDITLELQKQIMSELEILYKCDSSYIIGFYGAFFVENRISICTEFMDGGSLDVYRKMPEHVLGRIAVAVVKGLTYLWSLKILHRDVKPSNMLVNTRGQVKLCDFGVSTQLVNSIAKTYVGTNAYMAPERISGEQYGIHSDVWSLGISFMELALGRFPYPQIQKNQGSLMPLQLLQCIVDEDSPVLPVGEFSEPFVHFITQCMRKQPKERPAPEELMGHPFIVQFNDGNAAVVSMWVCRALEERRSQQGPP", "assay": "Inhibition of wild-type human partial length MEK5 (L98 to P448 residues) expressed in mammalian expression system at 1 uM by Kinomescan method relative to control"}, "[7]": {"target": "Macrophage-stimulating protein receptor (Homo sapiens) (UniProt Q04912)", "sequence (Q04912 25-304 limits assumed)": "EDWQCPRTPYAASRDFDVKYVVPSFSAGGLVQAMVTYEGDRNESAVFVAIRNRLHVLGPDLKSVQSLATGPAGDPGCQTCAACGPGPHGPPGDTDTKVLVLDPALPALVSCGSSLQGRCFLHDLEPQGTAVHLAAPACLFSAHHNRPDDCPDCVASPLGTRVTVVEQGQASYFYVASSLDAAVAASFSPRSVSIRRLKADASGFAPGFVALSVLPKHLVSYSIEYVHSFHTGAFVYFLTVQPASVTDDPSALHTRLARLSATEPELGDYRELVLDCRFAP", "sequence (Q04912 310-1400 limits assumed)": "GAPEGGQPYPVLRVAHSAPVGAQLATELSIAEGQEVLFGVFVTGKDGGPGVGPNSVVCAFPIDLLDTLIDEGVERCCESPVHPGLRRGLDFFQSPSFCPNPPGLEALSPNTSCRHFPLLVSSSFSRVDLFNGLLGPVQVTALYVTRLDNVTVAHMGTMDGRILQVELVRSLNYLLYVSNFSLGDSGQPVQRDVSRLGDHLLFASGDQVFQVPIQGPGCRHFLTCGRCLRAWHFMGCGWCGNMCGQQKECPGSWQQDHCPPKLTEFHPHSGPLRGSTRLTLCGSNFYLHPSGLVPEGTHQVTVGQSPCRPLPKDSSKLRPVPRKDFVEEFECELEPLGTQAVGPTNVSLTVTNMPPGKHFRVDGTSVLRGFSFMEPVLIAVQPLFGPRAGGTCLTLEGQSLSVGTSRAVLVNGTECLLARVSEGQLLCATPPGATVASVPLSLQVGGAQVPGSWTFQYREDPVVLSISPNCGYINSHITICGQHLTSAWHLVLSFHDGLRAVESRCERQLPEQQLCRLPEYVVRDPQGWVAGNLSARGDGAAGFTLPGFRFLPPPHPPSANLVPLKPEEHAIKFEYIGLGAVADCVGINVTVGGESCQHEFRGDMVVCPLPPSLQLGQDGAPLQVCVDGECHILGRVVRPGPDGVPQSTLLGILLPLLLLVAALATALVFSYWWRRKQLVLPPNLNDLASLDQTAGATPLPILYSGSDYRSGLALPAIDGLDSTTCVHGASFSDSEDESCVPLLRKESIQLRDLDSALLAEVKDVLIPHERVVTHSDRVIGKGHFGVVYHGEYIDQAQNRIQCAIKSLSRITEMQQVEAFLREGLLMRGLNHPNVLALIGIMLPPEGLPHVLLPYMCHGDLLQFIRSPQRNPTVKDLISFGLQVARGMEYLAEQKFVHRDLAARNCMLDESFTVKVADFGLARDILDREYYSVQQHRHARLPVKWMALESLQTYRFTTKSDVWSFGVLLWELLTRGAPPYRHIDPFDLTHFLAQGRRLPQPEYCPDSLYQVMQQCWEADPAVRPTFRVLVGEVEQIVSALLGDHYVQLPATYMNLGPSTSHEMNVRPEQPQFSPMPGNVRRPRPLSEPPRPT", "assay": "Inhibition of wild-type human partial length MST1R (I1057 to L1363 residues) expressed in bacterial expression system at 1 uM by Kinomescan method relative to control"}, "[8]": {"target": "Myosin light chain kinase family member 4 (Homo sapiens) (UniProt Q86YV6)", "sequence (Q86YV6 whole entry, the tested form may be a part)": "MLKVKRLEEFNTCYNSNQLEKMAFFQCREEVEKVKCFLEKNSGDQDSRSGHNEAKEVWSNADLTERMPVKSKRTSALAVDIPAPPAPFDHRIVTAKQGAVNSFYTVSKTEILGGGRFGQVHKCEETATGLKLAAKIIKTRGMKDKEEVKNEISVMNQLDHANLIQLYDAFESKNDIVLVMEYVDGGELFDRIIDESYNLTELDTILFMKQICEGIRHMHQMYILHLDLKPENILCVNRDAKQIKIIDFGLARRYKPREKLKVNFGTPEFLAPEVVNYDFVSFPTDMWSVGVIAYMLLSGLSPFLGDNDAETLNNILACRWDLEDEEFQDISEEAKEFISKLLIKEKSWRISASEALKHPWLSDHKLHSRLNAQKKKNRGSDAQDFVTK", "assay": "Inhibition of wild-type human partial length MYLK4 (V79 to S380 residues) expressed in bacterial expression system at 1 uM by Kinomescan method relative to control"}, "[9]": {"tested_on": "Phosphatidylinositol 4,5-bisphosphate 3-kinase catalytic subunit alpha isoform (Homo sapiens), P42336 [C420R]", "sequence (P42336 whole entry C420R, the tested form may be a part, canonical isoform)": "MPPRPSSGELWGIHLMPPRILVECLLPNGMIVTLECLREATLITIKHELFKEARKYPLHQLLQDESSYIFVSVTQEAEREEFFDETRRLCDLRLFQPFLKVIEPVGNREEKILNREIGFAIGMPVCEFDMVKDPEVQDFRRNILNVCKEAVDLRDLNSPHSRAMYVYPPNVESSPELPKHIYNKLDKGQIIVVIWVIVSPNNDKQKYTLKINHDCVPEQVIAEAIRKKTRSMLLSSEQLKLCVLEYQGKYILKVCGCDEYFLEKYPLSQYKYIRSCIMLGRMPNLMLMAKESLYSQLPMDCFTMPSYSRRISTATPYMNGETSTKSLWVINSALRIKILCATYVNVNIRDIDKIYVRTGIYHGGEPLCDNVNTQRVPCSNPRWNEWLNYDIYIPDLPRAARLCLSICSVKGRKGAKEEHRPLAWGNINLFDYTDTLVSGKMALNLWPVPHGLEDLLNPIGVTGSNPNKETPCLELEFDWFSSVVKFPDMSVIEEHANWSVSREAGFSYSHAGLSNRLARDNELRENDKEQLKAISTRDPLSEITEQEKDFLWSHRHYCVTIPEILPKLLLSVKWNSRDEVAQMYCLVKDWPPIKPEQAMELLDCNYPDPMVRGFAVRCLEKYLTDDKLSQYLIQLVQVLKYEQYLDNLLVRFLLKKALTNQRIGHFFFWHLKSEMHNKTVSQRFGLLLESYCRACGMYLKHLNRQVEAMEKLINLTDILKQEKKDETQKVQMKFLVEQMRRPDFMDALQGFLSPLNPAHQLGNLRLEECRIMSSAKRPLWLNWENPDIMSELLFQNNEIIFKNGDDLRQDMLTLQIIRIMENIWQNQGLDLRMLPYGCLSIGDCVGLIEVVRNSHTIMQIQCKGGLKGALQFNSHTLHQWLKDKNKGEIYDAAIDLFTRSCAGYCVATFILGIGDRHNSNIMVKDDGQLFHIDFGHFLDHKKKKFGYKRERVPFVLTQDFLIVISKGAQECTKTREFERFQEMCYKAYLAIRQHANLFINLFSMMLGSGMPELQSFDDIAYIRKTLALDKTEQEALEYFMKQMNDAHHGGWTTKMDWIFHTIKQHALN", "assay": "Inhibition of human partial length PIK3CA C420R mutant (R108 to N1068 residues) expressed in mammalian expression system at 1 uM by Kinomescan method relative to control"}, "[10]": {"target": "cGMP-dependent protein kinase 1 (Homo sapiens) (UniProt Q13976)", "assay": "Inhibition of wild-type human partial length PRKG1 (L339 to F686 residues) expressed in bacterial expression system at 1 uM by Kinomescan method relative to control"}, "[11]": {"target": "SNF-related serine/threonine-protein kinase (Homo sapiens) (UniProt Q9NRH2)", "assay": "Inhibition of wild-type human partial length SNRK (M1 to E339 residues) expressed in mammalian expression system at 1 uM by Kinomescan method relative to control"}, "[12]": {"target": "Transient receptor potential cation channel subfamily M member 6 (Homo sapiens) (UniProt Q9BX84)", "assay": "Inhibition of wild-type human partial length TRPM6 (Q1723 to I1998 residues) expressed in mammalian expression system at 1 uM by Kinomescan method relative to control"}, "[13]": {"target": "Ephrin type-B receptor 1 (Homo sapiens) (UniProt P54762)", "assay": "Inhibition of wild-type human partial length EPHB1 (P589 to T911 residues) expressed in bacterial expression system at 10 uM by Kinomescan method relative to control"}, "[14]": {"target": "Receptor tyrosine-protein kinase erbB-3 (Homo sapiens) (UniProt P21860)", "assay": "Inhibition of wild-type human partial length ERBB3 (G684 to A987 residues) expressed in mammalian expression system at 10 uM by Kinomescan method relative to control"}, "[15]": {"target": "Mast/stem cell growth factor receptor Kit (Homo sapiens) (UniProt P10721)", "assay": "Inhibition of wild-type human partial length autoinhibited KIT (Y545 to D952 residues) expressed in mammalian expression system at 10 uM by Kinomescan method relative to control"}, "[16]": {"target": "Serine/threonine-protein kinase LATS2 (Homo sapiens) (UniProt Q9NRM7)", "assay": "Inhibition of wild-type human partial length LATS2 (Q641 to V1088 residues) expressed in mammalian expression system at 10 uM by Kinomescan method relative to control"}, "[17]": {"target": "Serine/threonine-protein kinase MARK1 (Homo sapiens) (UniProt Q9P0L2)", "assay": "Inhibition of wild-type human partial length MARK1 (Q30 to T341 residues) expressed in bacterial expression system at 10 uM by Kinomescan method relative to control"}, "[18]": {"target": "Myosin light chain kinase (Homo sapiens) (UniProt Q32MK0)", "assay": "Inhibition of wild-type human partial length MLCK (D488 to K800 residues) expressed in bacterial expression system at 10 uM by Kinomescan method relative to control"}, "[19]": {"target": "Macrophage-stimulating protein receptor (Homo sapiens) (UniProt Q04912)", "assay": "Inhibition of wild-type human partial length MST1R (I1057 to L1363 residues) expressed in bacterial expression system at 10 uM by Kinomescan method relative to control"}, "[20]": {"target": "Myosin-IIIa (Homo sapiens) (UniProt Q8NEV4)", "assay": "Inhibition of wild-type human partial length MYO3A (M1 to K338 residues) expressed in bacterial expression system at 10 uM by Kinomescan method relative to control"}, "[21]": {"target": "Serine/threonine-protein kinase 38 (Homo sapiens) (UniProt Q15208)", "sequence (Q15208 2-465 limits assumed)": "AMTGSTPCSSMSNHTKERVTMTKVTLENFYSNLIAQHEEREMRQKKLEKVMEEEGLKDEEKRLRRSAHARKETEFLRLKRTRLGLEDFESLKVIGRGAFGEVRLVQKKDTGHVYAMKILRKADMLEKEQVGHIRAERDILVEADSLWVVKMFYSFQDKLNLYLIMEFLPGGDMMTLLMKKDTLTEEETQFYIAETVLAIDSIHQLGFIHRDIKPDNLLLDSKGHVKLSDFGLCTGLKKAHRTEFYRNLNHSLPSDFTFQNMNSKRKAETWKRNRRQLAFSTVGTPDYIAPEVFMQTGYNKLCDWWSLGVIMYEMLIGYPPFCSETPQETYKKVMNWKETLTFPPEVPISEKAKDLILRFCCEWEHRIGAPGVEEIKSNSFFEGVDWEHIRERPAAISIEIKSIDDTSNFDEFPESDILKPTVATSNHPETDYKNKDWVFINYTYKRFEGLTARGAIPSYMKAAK", "assay": "Inhibition of wild-type human partial length NDR1 (N33 to E449 residues) expressed in mammalian expression system at 10 uM by Kinomescan method relative to control"}, "[22]": {"target": "Serine/threonine-protein kinase PAK 5 (Homo sapiens) (UniProt Q9P286)", "assay": "Inhibition of wild-type human partial length PAK7 (Y400 to H719 residues) expressed in bacterial expression system at 10 uM by Kinomescan method relative to control"}, "[23]": {"target": "Cyclin-dependent kinase 14 (Homo sapiens) (UniProt O94921)", "sequence (O94921 whole entry, the tested form may be a part)": "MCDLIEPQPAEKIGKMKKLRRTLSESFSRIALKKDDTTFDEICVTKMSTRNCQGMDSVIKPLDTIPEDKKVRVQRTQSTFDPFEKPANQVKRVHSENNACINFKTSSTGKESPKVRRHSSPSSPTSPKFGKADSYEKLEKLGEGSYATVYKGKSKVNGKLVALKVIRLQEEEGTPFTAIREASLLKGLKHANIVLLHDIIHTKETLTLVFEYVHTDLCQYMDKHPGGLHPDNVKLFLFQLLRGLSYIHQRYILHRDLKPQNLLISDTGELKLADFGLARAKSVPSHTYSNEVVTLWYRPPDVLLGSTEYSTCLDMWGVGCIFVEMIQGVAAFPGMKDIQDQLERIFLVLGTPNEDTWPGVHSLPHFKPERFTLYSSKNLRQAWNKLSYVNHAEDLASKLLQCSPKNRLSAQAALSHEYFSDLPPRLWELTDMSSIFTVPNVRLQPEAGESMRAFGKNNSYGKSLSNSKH", "assay": "Inhibition of wild-type human full length PFTK1 (M1 to H451 residues) expressed in bacterial expression system at 10 uM by Kinomescan method relative to control"}, "[24]": {"target": "Membrane-associated tyrosine- and threonine-specific cdc2-inhibitory kinase (Homo sapiens) (UniProt Q99640)", "assay": "Inhibition of wild-type human partial length PKMYT1 (A88 to G366 residues) expressed in bacterial expression system at 10 uM by Kinomescan method relative to control"}, "[25]": {"target": "Serine/threonine-protein kinase SIK3 (Homo sapiens) (UniProt Q9Y2K2)", "assay": "Inhibition of wild-type human partial length QSK (A90 to L395 residues) expressed in mammalian expression system at 10 uM by Kinomescan method relative to control"}, "[26]": {"target": "Ribosomal protein S6 kinase alpha-5 (Homo sapiens) (UniProt O75582)", "assay": "Inhibition of wild-type human partial length C-terminal RPS6KA5 kinase domain 2 (V390 to T718 residues) expressed in bacterial expression system at 10 uM by Kinomescan method relative to control"}, "[27]": {"target": "Serine/threonine-protein kinase SIK2 (Homo sapiens) (UniProt Q9H0K1)", "assay": "Inhibition of wild-type human full length SIK2 (M1 to N926 residues) expressed in bacterial expression system at 10 uM by Kinomescan method relative to control"}},
  "data": [
    {"compound": "O=C(Nc1cccc([C@@H]2CN(c3ncnc4[nH]ccc34)CCN2CCO)c1)Nc1c(F)cccc1N1CCCC1", "values": [
      {"measurement": "inhibition", "setting": "[1]", "result": 91, "unit": "%"},
      {"measurement": "inhibition", "setting": "[2]", "result": 98, "unit": "%"},
      {"measurement": "inhibition", "setting": "[3]", "result": 100, "unit": "%"},
      {"measurement": "inhibition", "setting": "[4]", "result": 94, "unit": "%"},
      {"measurement": "inhibition", "setting": "[5]", "result": 97, "unit": "%"},
      {"measurement": "inhibition", "setting": "[6]", "result": 67, "unit": "%"},
      {"measurement": "inhibition", "setting": "[7]", "result": 100, "unit": "%"},
      {"measurement": "inhibition", "setting": "[8]", "result": 100, "unit": "%"},
      {"measurement": "inhibition", "setting": "[9]", "result": 89, "unit": "%"},
      {"measurement": "inhibition", "setting": "[10]", "result": 100, "unit": "%"},
      {"measurement": "inhibition", "setting": "[11]", "result": 88, "unit": "%"},
      {"measurement": "inhibition", "setting": "[12]", "result": 65, "unit": "%"}
    ]},
    {"compound": "O=C(Nc1cccc([C@H]2CCCN(c3ncnc4[nH]ccc34)C2)c1)Nc1ccccc1N1CCCC1", "values": [
      {"measurement": "inhibition", "setting": "[13]", "result": 100, "unit": "%"},
      {"measurement": "inhibition", "setting": "[14]", "result": 72, "unit": "%"},
      {"measurement": "inhibition", "setting": "[15]", "result": 71, "unit": "%"},
      {"measurement": "inhibition", "setting": "[16]", "result": 14, "unit": "%"},
      {"measurement": "inhibition", "setting": "[17]", "result": 81, "unit": "%"},
      {"measurement": "inhibition", "setting": "[18]", "result": 100, "unit": "%"},
      {"measurement": "inhibition", "setting": "[19]", "result": 100, "unit": "%"},
      {"measurement": "inhibition", "setting": "[20]", "result": 52, "unit": "%"},
      {"measurement": "inhibition", "setting": "[21]", "result": 57, "unit": "%"},
      {"measurement": "inhibition", "setting": "[22]", "result": 69, "unit": "%"},
      {"measurement": "inhibition", "setting": "[23]", "result": 61, "unit": "%"},
      {"measurement": "inhibition", "setting": "[24]", "result": 71, "unit": "%"},
      {"measurement": "inhibition", "setting": "[25]", "result": 88, "unit": "%"},
      {"measurement": "inhibition", "setting": "[26]", "result": 75, "unit": "%"},
      {"measurement": "inhibition", "setting": "[27]", "result": 84, "unit": "%"}
    ]}
  ]
}
